Reference: US9260504B2, “N- and C-terminal substituted antagonistic analogs of GH-RH” (University of Miami, priority 2008, dated 2016)

Experiments:
Format in all cases: in vivo
[1] = tested on: Human ovarian cancer SKOV3 cells; assay: SKOV3 ovarian cancer xenografts in nude mice; settings: 5 μg/day s.c.
Text: Human ovarian cancer SKOV3 cells growing exponentially were implanted info five female nude mice by subcutaneous (s.c.) injection of 10^7 cells in both flanks. Tumors That resulted after approximately 4 weeks in donor animals were then aseptically dissected and mechanically minced. Three mm^3 pieces of tumor tissue were transplanted subcutaneously into experimental animals with a trocar needle. When tumors reached an appropriate size (approximately 50 mm^3), mice were randomly divided into […]. The first was the control group, the second group was treated with daily s.c. injections of 5 μg P-11313, the third group was treated with daily s.c. injections of 5 μg P-11604, the fourth group was treated with daily s.c. injections of 5 μg P-11610. Tumor volume (length×width×height×0.5236) was measured every week and mean tumor volumes of each group were compared by Student's t-test. The study lasted 49 days. One week after end of treatment, mice were killed under anesthesia, tumors were snap frozen and stored at −70° C.

[2] = tested on: PC-3 human hormone-independent prostate cancer; assay: PC3 androgen-independent prostate cancer xenografts in nude mice (Example XIV)
Experimental: Male nude mice were implanted s.c. with 3 mm^3 pieces of PC-3 human hormone-independent prostate cancer tissue on both flanks. When tumors reached a volume of approximately 50 mm^3, the mice were divided into 8 experimental groups with 8 to 10 animals in each group and received single daily injections for 28 days as follows: 1. Control (vehicle solution); 2. P-11513 2 μg/day; 3. P-11602 2 μg/day; 4. P-11602 1 μg/day; 5. P-11604 2 μg/day; 6. P-11606 2 μg/day; 7. P-11610 2 μg/day; 8. P-11610 1 μg/day.
(§1) Tumor volumes were measured once a week. The experiment was ended on day 28 by sacrificing the mice under Isoflurane anesthesia. Resulting tumors were cleaned, weighed, and snap-frozen until further analyses. Statistical analyses of the measurement results were done by two-tailed t-test, p<0.05 being considered significant.

[3] = tested on: HT human diffuse mixed B cell lymphoma cell line; assay: HT human diffuse mixed B cell lymphoma xenografts in nude mice; settings: 5 μg/day s.c.
Experimental: The aim of this study was to find out the tumor inhibitor effect of the latest GHRH antagonists (Peptide 11602, Peptide 11604, Peptide 11606, and Peptide 11610) at the dose of 5 μg/day on HT human diffuse mixed B cell lymphoma cell line. Female nude mice were xenografted subcutaneously with approximately 3 mm^3 pieces of HT malignant tumor tissue. When tumors reached the mean volume of approximately 120 mm^3, the animals were randomly assigned into different groups. Tumor volumes and body weight were measured once a week. At the end of the experiment mice were anesthetized and sacrificed. Tumors were carefully excised, weighed and were stored at −80° C. until further investigation. Organs and tumor samples were preserved in 10% formaldehyde.

[4] = tested on: PC-3 human hormone-independent prostate cancer; assay: PC-3 human prostate cancer xenografts in nude mice, Experiment 4; settings: for Tumor growth after 28 days (%) / Tumor growth after 46 days (%) / Inhibition (%): 2 μg/day s.c.; for Inhibitory effect on PC-3 tumors compared with reference peptide JMR-132: 2 μg/day vs JMR-132 10 μg/day, after 46 days of treatment
Experimental: Male nude mice were implanted s.c. with 3 mm^3 pieces of PC-3 human hormone-independent prostate cancer tissue on both flanks. When tumors reached a volume of approximately 50 mm^3, the mice were divided into 12 experimental groups with 8 to 10 animals in each group and received single daily injections for 28 days as follows: 1. Control (vehicle solution); 2. JMR-132 (10 μg/day s.c.); 3. Peptide 11113 (2 μg/day s.c.); 4. Peptide 11119 (2 μg/day s.c.); 5. Peptide 11209 (2 μg/day s.c.); 6. Peptide 11313 (2 μg/day s.c.); 7. Peptide 11408 (2 μg/day s.c.); 8. Peptide 11435 (2 μg/day s.c.); 9. Peptide 11457 (2 μg/day s.c.); 10. Peptide 11459 (2 μg/day s.c.); 11. Peptide 11469 (2 μg/day s.c.); 12. Peptide 11491 (2 μg/day s.c.).
as §1
All experimental details of Experiment 4 are the same as for Experiment 3, with the following difference. When tumors reached a volume of approximately 50 mm^3, the mice were divided into 11 experimental groups with 8 to 10 animals in each group and received single daily injections for 46 days as follows: 1. Control (vehicle solution); 2. JMR-132 (10 μg/day s.c.); 3. Peptide 11123 (2 μg/day s.c.); 4. Peptide 11125 (2 μg/day s.c.); 5. Peptide 11213 (2 μg/day s.c.); 6. Peptide 11433 (2 μg/day s.c.); 7. Peptide 11473 (2 μg/day s.c.); 8. Peptide 11485 (2 μg/day s.c.); 9. Peptide 11497 (2 μg/day s.c.); 10. Peptide 11499 (2 μg/day s.c.); 11. Peptide 11521 (2 μg/day s.c.). Tumor volumes were measured once a week. The experiment was ended on day 46 by sacrificing the mice under Isoflurane anesthesia. Resulting tumors were cleaned, weighed, and snap-frozen until further analyses. Statistical analyses of the measurement results were done by two-tailed t-test, p<0.05 being considered significant.

[5] = tested on: H460 human non-small cell lung cancer cell line; assay: H460 human non-small cell lung cancer xenografts in nude mice (Example XV); settings: 5 μg/day s.c.
Text: The aim of this study was to find out the tumor inhibitor effect of the latest GHRH antagonists (Peptide 11423, Peptide 11602, Peptide 11604, Peptide 11606) on H460 human non-small cell lung cancer cell line. Female nude mice were xenografted subcutaneously with approximately 3 mm^3 pieces of H460 human non-small cell lung cancer malignant tumor tissue. When tumors reached the mean volume of approximately 90 mm^3, the animals was randomly assigned into different groups. Tumor volumes and body weight were measured once a week. At the end of the experiment mice were anesthetized and sacrificed. Tumors were carefully excised, weighed and were stored at −80° C. until further investigation. Organs and tumor samples were preserved in 10% formaldehyde.

PhAc^0-Tyr^1, D-Arg^2, Cpa^6, Ala^8, Har^9, (Phe(F)5)^10, His^11, Orn^12, Abu^15, His^20, Orn^21, Nle^27, D-Arg^28, Har^29-Ada^30]hGH-RH(1-29)NH2 [Peptide 11610]
TU growth (%) ([1]; day 0 (baseline)): 100%
TU growth (%) ([1]; day 7): 137.44%
TU inhibition (%) ([1]; day 7): 35.89%
TU growth (%) ([1]; day 14): 150.1%
TU inhibition (%) ([1]; day 14): 46.44%
TU growth (%) ([1]; day 21): 239.14%
TU inhibition (%) ([1]; day 21): 56.00%
TU growth (%) ([1]; day 28): 204.07%
TU inhibition (%) ([1]; day 28): 75.76%
TU growth (%) ([1]; day 35): 242.05%
TU inhibition (%) ([1]; day 35): 72.89%
TU growth (%) ([1]; day 42): 273.83%
TU inhibition (%) ([1]; day 42): 77.85%
TU growth (%) ([1]; day 49): 383.93%
TU inhibition (%) ([1]; day 49): 69.82%
TUMOR GROWTH (%) ([2]; 1 μg/day, day 0 (baseline)): 100%
TUMOR GROWTH (%) ([2]; 1 μg/day, day 7): 195.49%
Tumor inhibition (%) ([2]; 1 μg/day, day 7): 40.99%
TUMOR GROWTH (%) ([2]; 1 μg/day, day 14): 302.30%
Tumor inhibition (%) ([2]; 1 μg/day, day 14): 48.84%
TUMOR GROWTH (%) ([2]; 1 μg/day, day 21): 549.94%
Tumor inhibition (%) ([2]; 1 μg/day, day 21): 53.79%
TUMOR GROWTH (%) ([2]; 1 μg/day, day 28): 740.17%
Tumor inhibition (%) ([2]; 1 μg/day, day 28): 60.15%
TUMOR GROWTH (%) ([2]; 2 μg/day, day 0 (baseline)): 100%
TUMOR GROWTH (%) ([2]; 2 μg/day, day 7): 132.24%
Tumor inhibition (%) ([2]; 2 μg/day, day 7): 60.08%
TUMOR GROWTH (%) ([2]; 2 μg/day, day 14): 289.25%
Tumor inhibition (%) ([2]; 2 μg/day, day 14): 51.05%
TUMOR GROWTH (%) ([2]; 2 μg/day, day 21): 466.31%
Tumor inhibition (%) ([2]; 2 μg/day, day 21): 60.82%
TUMOR GROWTH (%) ([2]; 2 μg/day, day 28): 631.89%
Tumor inhibition (%) ([2]; 2 μg/day, day 28): 65.98%
TUMOR GROWTH (%) ([3]; day 1 (baseline)): 100%
Tumor inhibition (%) ([3]; day 1 (baseline)): 0%
Tumor volume (mm^3) ([3]; day 1 (baseline)): 90.42 mm^3
TUMOR GROWTH (%) ([3]; day 7): 183.36%
Tumor inhibition (%) ([3]; day 7): 40.01%
Tumor volume (mm^3) ([3]; day 7): 145.53 mm^3
TUMOR GROWTH (%) ([3]; day 14): 307.98%
Tumor inhibition (%) ([3]; day 14): 36.21%
Tumor volume (mm^3) ([3]; day 14): 194.57 mm^3
TUMOR GROWTH (%) ([3]; day 21): 361.18%
Tumor inhibition (%) ([3]; day 21): 53.78%
Tumor volume (mm^3) ([3]; day 21): 250.24 mm^3
TUMOR GROWTH (%) ([3]; day 28): 519.79%
Tumor inhibition (%) ([3]; day 28): 42.02%
Tumor volume (mm^3) ([3]; day 28): 428.99 mm^3

[(Ac-Amc)^0-Tyr^1, D-Arg^2, Cpa^6, Ala^8, Har^9, Tyr(Me)^10, His^11, Orn^12, Abu^15, His^20, Orn^21, Nle^27, D-Arg^28, Har^29-Ada^30]hGH-RH(1-29)NH2 [Peptide 11497]
Tumor growth after 28 days (%) [4]: 872%
Tumor growth after 46 days (%) [4]: 1658%
Inhibitory effect on PC-3 tumors compared with reference peptide JMR-132 [4]: had a more potent inhibitory effect than reference peptide JMR-132
Inhibition (%) ([4]; after 28 days): 36.25%
Inhibition (%) ([4]; after 46 days): 50.22%

[(Dca-Amc)^0-Tyr^1, D-Arg^2, Cpa^6, Ala^8, Har^9, Tyr(Me)^10, His^11, Orn^12, Orn^15, His^20, Orn^21, Nle^27, D-Arg^28, Har^29-Ada^30]hGH-RH(1-29)NH2 [Peptide 11521]
Tumor growth after 28 days (%) [4]: 877%
Tumor growth after 46 days (%) [4]: 2427%
Inhibition (%) ([4]; after 28 days): 35.86%
Inhibition (%) ([4]; after 46 days): 27.11%

[Dca^0-Tyr^1, D-Arg^2, Cpa^6, Ala^8, Har^9, Tyr(Me)^10, His^11, Orn^12, Abu^15, Har^20, Orn^21, Nle^27, D-Arg^28, Har^29]hGH-RH(1-29)NH2 [Peptide 11513]
TUMOR GROWTH (%) ([2]; 2 μg/day, day 0 (baseline)): 100%
TUMOR GROWTH (%) ([2]; 2 μg/day, day 7): 212.49%
Tumor inhibition (%) ([2]; 2 μg/day, day 7): 35.86%
TUMOR GROWTH (%) ([2]; 2 μg/day, day 14): 420.81%
Tumor inhibition (%) ([2]; 2 μg/day, day 14): 28.79%
TUMOR GROWTH (%) ([2]; 2 μg/day, day 21): 823.51%
Tumor inhibition (%) ([2]; 2 μg/day, day 21): 30.80%
TUMOR GROWTH (%) ([2]; 2 μg/day, day 28): 1420.09%
Tumor inhibition (%) ([2]; 2 μg/day, day 28): 23.54%

[Nac^0-Tyr^1, D-Arg^2, Cpa^6, Ala^8, Har^9, Tyr(Me)^10, His^11, Orn^12, Abu^15, His^20, Orn^21, Nle^27, D-Arg^28, Har^29-AE2A^30] hGH-RH(1-29)NH2 [Peptide 11433]
Tumor growth after 28 days (%) [4]: 956%
Tumor growth after 46 days (%) [4]: 1890%
Inhibition (%) ([4]; after 28 days): 30.15%
Inhibition (%) ([4]; after 46 days): 43.23%

[Oct^0-Tyr^1, D-Arg^2, Cpa^6, Ala^8, His^9, Tyr(Et)^10, His^11, Orn^12, Abu^15, His^20, Orn^21, Nle^27, D-Arg^28, Har^29-Ada^30]hGH-RH(1-29)NH2 [Peptide 11213]
Tumor growth after 28 days (%) [4]: 651%
Tumor growth after 46 days (%) [4]: 1144%
Inhibitory effect on PC-3 tumors compared with reference peptide JMR-132 [4]: had a more potent inhibitory effect than reference peptide JMR-132
Inhibition (%) ([4]; after 28 days): 52.41%
Inhibition (%) ([4]; after 46 days): 65.65%

[PhAc^0-Tyr^1, D-Arg^2, (Phe(F)5)^6, Ala^8, Har^9, Tyr(Me)^10, His^11, Orn^12, Abu^15, His^20, Orn^21, Nle^27, D-Arg^28, Har^29-Ada^30]hGH-RH(1-29)NH2 [Peptide 11499]
Tumor growth after 28 days (%) [4]: 782%
Tumor growth after 46 days (%) [4]: 2178%
Inhibition (%) ([4]; after 28 days): 42.86%
Inhibition (%) ([4]; after 46 days): 34.59%

[PhAc^0-Tyr^1, D-Arg^2, Cpa^6, Dip^8, Har^9, Tyr(Me)^10, His^11, Orn^12, Abu^15, His^20, Orn^21, Nle^27, D-Arg^28, Har^29-AE2A^30]hGH-RH(1-29)NH2 [Peptide 11423]
TUMOR GROWTH (%) ([5]; day 1 (baseline)): 100.00%
TUMOR GROWTH (%) ([5]; day 7): 412.37%
Tumor inhibition (%) ([5]; day 7): 22.17%
TUMOR GROWTH (%) ([5]; day 14): 761.10%
Tumor inhibition (%) ([5]; day 14): 44.95%
TUMOR GROWTH (%) ([5]; day 21): 1130.90%
Tumor inhibition (%) ([5]; day 21): 54.20%
TUMOR GROWTH (%) ([5]; day 28): 2687.38%
Tumor inhibition (%) ([5]; day 28): 34.45%
